The source of these data is PubChem BioAssay AID1259407 (Chemical Carcinogenesis Research Information System (CCRIS), 2018).

The data set concerns CCRIS mutagenicity, Ames/micronucleus/aberration tests. Description: CCRIS mutagenicity studies.
Setting [1] is: Test System: AMES SALMONELLA TYPHIMURIUM, Strain/Indicator: TA97, Metabolic Activation: NONE, Method: PREINCUBATION
Where [2] appears, read: Test System: AMES SALMONELLA TYPHIMURIUM, Strain/Indicator: TA98, Metabolic Activation: NONE, Method: PREINCUBATION
Setting [3] is: Test System: AMES SALMONELLA TYPHIMURIUM, Strain/Indicator: TA100, Metabolic Activation: NONE, Method: PREINCUBATION
Where [4] appears, read: Test System: AMES SALMONELLA TYPHIMURIUM, Strain/Indicator: TA1535, Metabolic Activation: NONE, Method: PREINCUBATION
The mark [5] stands for this setting: Test System: AMES SALMONELLA TYPHIMURIUM, Strain/Indicator: TA98, Metabolic Activation: RAT, LIVER, S-9, PCB, Method: PREINCUBATION
Where [6] appears, read: Test System: AMES SALMONELLA TYPHIMURIUM, Strain/Indicator: TA100, Metabolic Activation: RAT, LIVER, S-9, PCB, Method: PREINCUBATION
Where [7] appears, read: Test System: AMES SALMONELLA TYPHIMURIUM, Strain/Indicator: TA1537, Metabolic Activation: NONE, Method: PREINCUBATION

Activity calls are given as the source filed them. The rule behind the calls is not given here.

Consider `CC/C=C1\OC(=O)c2ccccc21`, for which the mutagenic call runs as follows: (Test System: AMES SALMONELLA TYPHIMURIUM, Strain/Indicator: TA97, Metabolic Activation: HAMSTER, LIVER, S-9, AROCLOR 1254 (10%), Method: PREINCUBATION) “inactive; negative”; under setting [1], “inactive; negative”; (Test System: AMES SALMONELLA TYPHIMURIUM, Strain/Indicator: TA97, Metabolic Activation: RAT, LIVER, S-9, AROCLOR 1254 (10%), Method: PREINCUBATION) “inactive; negative”; (Test System: AMES SALMONELLA TYPHIMURIUM, Strain/Indicator: TA98, Metabolic Activation: HAMSTER, LIVER, S-9, AROCLOR 1254 (10%), Method: PREINCUBATION) “inactive; negative”; under setting [2], “inactive; negative”; (Test System: AMES SALMONELLA TYPHIMURIUM, Strain/Indicator: TA98, Metabolic Activation: RAT, LIVER, S-9, AROCLOR 1254 (10%), Method: PREINCUBATION) “inactive; negative”. Further, the mutagenic call (Test System: AMES SALMONELLA TYPHIMURIUM, Strain/Indicator: TA100, Metabolic Activation: HAMSTER, LIVER, S-9, AROCLOR 1254 (10%), Method: PREINCUBATION) is “inactive; negative”; the mutagenic call under setting [3] was “inactive; negative”; the mutagenic call (Test System: AMES SALMONELLA TYPHIMURIUM, Strain/Indicator: TA100, Metabolic Activation: RAT, LIVER, S-9, AROCLOR 1254 (10%), Method: PREINCUBATION) is “active; positive”; the mutagenic call (Test System: AMES SALMONELLA TYPHIMURIUM, Strain/Indicator: TA1535, Metabolic Activation: HAMSTER, LIVER, S-9, AROCLOR 1254 (10%), Method: PREINCUBATION) was “inactive; negative”; the mutagenic call under setting [4] is “inactive; negative”; the mutagenic call (Test System: AMES SALMONELLA TYPHIMURIUM, Strain/Indicator: TA1535, Metabolic Activation: RAT, LIVER, S-9, AROCLOR 1254 (10%), Method: PREINCUBATION) is “inactive; negative”.
Regarding `O[C@H]1C=Cc2c(cc3c4c(c5ccccc5cc24)-c2ccccc2-3)[C@@H]1O`, the mutagenic call (Test System: AMES SALMONELLA TYPHIMURIUM, Strain/Indicator: TA100, Metabolic Activation: MOUSE, LIVER, S-9, 3-METHYLCHOLANTHRENE, Method: STANDARD PLATE) is “active; positive” and the mutagenic call (Test System: AMES SALMONELLA TYPHIMURIUM, Strain/Indicator: TA100, Metabolic Activation: RAT, LIVER, S-9, 3-METHYLCHOLANTHRENE, Method: STANDARD PLATE) is “active; positive”.
Consider `C/C(Cl)=C/C=O`, for which the mutagenic call is “active; positive” (Test System: AMES SALMONELLA TYPHIMURIUM, Strain/Indicator: D3052, Metabolic Activation: NONE, Method: PREINCUBATION, LIQUID INCUBATION); “inactive; negative” (Test System: AMES SALMONELLA TYPHIMURIUM, Strain/Indicator: TA98, Metabolic Activation: NONE, Method: PREINCUBATION, LIQUID INCUBATION); “inactive; negative” (Test System: AMES SALMONELLA TYPHIMURIUM, Strain/Indicator: TA100, Metabolic Activation: NONE, Method: PREINCUBATION, LIQUID INCUBATION); “inactive; negative” (Test System: AMES SALMONELLA TYPHIMURIUM, Strain/Indicator: TA1535, Metabolic Activation: NONE, Method: PREINCUBATION, LIQUID INCUBATION); “inactive; negative” (Test System: AMES SALMONELLA TYPHIMURIUM, Strain/Indicator: TA1538, Metabolic Activation: NONE, Method: PREINCUBATION, LIQUID INCUBATION).
On to `O=C1c2ccccc2C(=O)c2c(O)c(O)cc(O)c21`, for which the mutagenic call is “inactive; negative” under setting [2]; “inactive; negative” (Test System: AMES SALMONELLA TYPHIMURIUM, Strain/Indicator: TA98, Metabolic Activation: RAT, LIVER, S-9, AROCLOR 1254, Method: STANDARD PLATE); “inactive; negative” under setting [5]; “inactive; negative” under setting [3]; “inactive; negative” (Test System: AMES SALMONELLA TYPHIMURIUM, Strain/Indicator: TA100, Metabolic Activation: RAT, LIVER, S-9, AROCLOR 1254, Method: STANDARD PLATE); “inactive; negative” under setting [6]. For the same molecule, the mutagenic call runs as follows: (Test System: AMES SALMONELLA TYPHIMURIUM, Strain/Indicator: TA1535, Metabolic Activation: NONE, Method: STANDARD PLATE) “inactive; negative”; (Test System: AMES SALMONELLA TYPHIMURIUM, Strain/Indicator: TA1535, Metabolic Activation: RAT, LIVER, S-9, AROCLOR 1254, Method: STANDARD PLATE) “inactive; negative”; under setting [7], “active; positive”; (Test System: AMES SALMONELLA TYPHIMURIUM, Strain/Indicator: TA1537, Metabolic Activation: NONE, Method: STANDARD PLATE) “active; positive”; (Test System: AMES SALMONELLA TYPHIMURIUM, Strain/Indicator: TA1537, Metabolic Activation: RAT, LIVER, S-9, AROCLOR 1254, Method: STANDARD PLATE) “active; positive”; (Test System: AMES SALMONELLA TYPHIMURIUM, Strain/Indicator: TA1537, Metabolic Activation: RAT, LIVER, S-9, Method: PREINCUBATION) “active; positive”. Besides, the mutagenic call is, setting by setting: (Test System: CHINESE HAMSTER V-79, Strain/Indicator: V-79/8-AZAGUANINE, Metabolic Activation: NONE, Method: STANDARD PLATE) “active; positive”; (Test System: UDS RODENT HEPATOCYTES, Strain/Indicator: THY INCORP (NON-S-PHASE), Method: AUTORADIOGRAPHY) “active; positive”.
On to `Brc1ccc(CN2[C@@H]3c4ccccc4-c4ccccc4[C@@H]32)cc1` (stereo not given in full), for which the mutagenic call (Test System: AMES SALMONELLA TYPHIMURIUM, Strain/Indicator: TA100, Metabolic Activation: NONE, Method: STANDARD PLATE) is “active; positive”.
In the case of `Nc1nc(=O)n([C@H]2C[C@H](O)[C@@H](CO)O2)cc1I`, the mutagenic call under setting [1] is “inactive; negative”; the mutagenic call (Test System: AMES SALMONELLA TYPHIMURIUM, Strain/Indicator: TA97, Metabolic Activation: RAT, LIVER, S-9, AROCLOR 1254, Method: PREINCUBATION) was “inactive; negative”; the mutagenic call under setting [2] is “inactive; negative”; the mutagenic call (Test System: AMES SALMONELLA TYPHIMURIUM, Strain/Indicator: TA98, Metabolic Activation: RAT, LIVER, S-9, AROCLOR 1254, Method: PREINCUBATION) is “inactive; negative”; the mutagenic call under setting [3] is “inactive; negative”; the mutagenic call (Test System: AMES SALMONELLA TYPHIMURIUM, Strain/Indicator: TA100, Metabolic Activation: RAT, LIVER, S-9, AROCLOR 1254, Method: PREINCUBATION) was “inactive; negative”. Also, the mutagenic call was “inactive; negative” (Test System: AMES SALMONELLA TYPHIMURIUM, Strain/Indicator: TA102, Metabolic Activation: NONE, Method: PREINCUBATION); “inactive; negative” (Test System: AMES SALMONELLA TYPHIMURIUM, Strain/Indicator: TA102, Metabolic Activation: RAT, LIVER, S-9, AROCLOR 1254, Method: PREINCUBATION); “inactive; negative” (Test System: AMES SALMONELLA TYPHIMURIUM, Strain/Indicator: TA104, Metabolic Activation: NONE, Method: PREINCUBATION); “inactive; negative” (Test System: AMES SALMONELLA TYPHIMURIUM, Strain/Indicator: TA104, Metabolic Activation: RAT, LIVER, S-9, AROCLOR 1254, Method: PREINCUBATION); “inactive; negative” under setting [4]; “inactive; negative” (Test System: AMES SALMONELLA TYPHIMURIUM, Strain/Indicator: TA1535, Metabolic Activation: RAT, LIVER, S-9, AROCLOR 1254, Method: PREINCUBATION). Moreover, the mutagenic call is “inactive; negative” under setting [7]; “inactive; negative” (Test System: AMES SALMONELLA TYPHIMURIUM, Strain/Indicator: TA1537, Metabolic Activation: RAT, LIVER, S-9, AROCLOR 1254, Method: PREINCUBATION); “inactive; negative” (Test System: AMES SALMONELLA TYPHIMURIUM, Strain/Indicator: TA1538, Metabolic Activation: NONE, Method: PREINCUBATION); “inactive; negative” (Test System: AMES SALMONELLA TYPHIMURIUM, Strain/Indicator: TA1538, Metabolic Activation: RAT, LIVER, S-9, AROCLOR 1254, Method: PREINCUBATION); “inactive; negative” (Test System: CHINESE HAMSTER V-79, Strain/Indicator: V-79/8-AZAGUANINE, Metabolic Activation: NONE).
Regarding `Cc1ccc(NN=NCc2ccc([N+](=O)[O-])cc2)cc1`, the mutagenic call under setting [2] is “active; positive”, the mutagenic call under setting [5] was “active; positive”, the mutagenic call under setting [3] was “active; positive” and the mutagenic call under setting [6] was “active; positive”.
